# Measurements published in patent US8058395B2, “Chimeric protein comprising a green fluorescent ptotein fused to a transcription factor” (The United States of America as represented by the …, priority 1995, dated 2011).
# Columns and labels:
# Format in all cases: cell-based
# GFP-GR [1] = target: T1, GFP-GR (Rattus norvegicus, UniProt P06536, C656G/D98G); experiment: Cytoplasm-to-nuclear translocation of GFP-GR in living transfected murine adenocarcinoma cells (video/confocal microscopy)
# T1 construct: expressed in transfected cells; host or cells: 1471.1 cells (murine C127 adenocarcinoma derivative); 3134 cells (C127 derivative) for gene targeting
# GFP-GR [2] = target: T1, GFP-GR; experiment: Activation of endogenous multi-copy MMTV LTR-CAT reporter in 1471.1 cells expressing GFP-GR (ligand specificity); settings: 4 hrs, dex 1 nM and 10 nM, RU486 10 nM
# GFP-GR [3] = target: T1, GFP-GR; experiment: Intranuclear accumulation pattern (foci) of GFP-GR, confocal microscopy and 3D reconstruction; settings: ligand-treated cells
Compound,fluorescing cells in which translocation of GFP-GR occurs (GFP-GR [1]) [%],activation of MMTV LTR-CAT reporter (GFP-GR [2]),"extent of GFP-GR cytoplasm-to-nuclear translocation (GFP-GR [1]; 10 nM ligand, 30 min at 37° C.)",intranuclear focal accumulation pattern of GFP-GR (GFP-GR [3])
C[C@@H]1C[C@H]2[C@@H]3CCC4=CC(=O)C=C[C@]4(C)[C@@]3(F)[C@@H](O)C[C@]2(C)[C@@]1(O)C(=O)CO [dexamethasone],100,,,
C[C@]12CC[C@@H]3c4ccc(O)cc4CC[C@H]3[C@@H]1CC[C@@H]2O [17-β-estradiol],,fails to activate,did not cause intranuclear GFP-GR accumulation,not observed
